Like-named read-outs stand apart in the source and are kept apart here.
Assays:
[1] = tested on: PfATP4-mutant P. falciparum lines and their parents; settings: cited from earlier work
[2] = tested on: cipargamin-selected culture B (from Dd2-PfATP4^T418N,P990R); experiment: P. falciparum proliferation assay (72 h, fluorescent DNA-intercalating dye); assay type: cell-based; settings: Plasmodium falciparum, culture B at end of drug-exposure period, mean ± SEM, n = 3
Protocol: (§1) For experiments with all other parasites, the effects of compounds of interest on parasite proliferation was measured in 96-well plates containing serial dilutions of the compounds in culture medium, with a fluorescent DNA-intercalating dye used to detect surviving parasites. The assays were initiated with erythrocytes infected with predominantly ring-stage parasites, and the starting parasitaemia and haematocrit were both 1%. […] Fluorescence was measured using a FLUOstar OPTIMA plate reader (BMG LABTECH), with OPTIMA version 2.20R2 and MARS Data Analysis Software version 3.01 R2 (BMG LABTECH).

[3] = tested on: cipargamin-selected culture A (from Dd2-PfATP4^T418N,P990R); experiment: as above; assay type: cell-based; settings: Plasmodium falciparum, culture A at end of drug-exposure period, mean ± SEM, n = 3
Protocol: as §1

In the case of `N#Cc1cc(NC(=O)[C@H]2c3ccccc3C(=O)N(CC(F)(F)F)[C@@H]2c2cccnc2)ccc1F` [(+)-SJ733], the IC50 ([1]; genetically engineered parasites bearing L350H in PfATP4) is given as 3.5 µM, the IC50 ([1]; genetically engineered parasites bearing P412T in PfATP4) is given as 10 µM and the IC50 ([1]; parental wild-type parasites) is given as 0.075 µM.

`C[C@H]1Cc2c([nH]c3cc(Cl)c(F)cc23)[C@@]2(N1)C(=O)Nc1ccc(Cl)cc12` [Cipargamin] showed an IC50 [2] of 6.2 ± 0.2 µM and an IC50 [3] of 5.9 ± 0.2 µM.

— article PMC9525273 (Nature Communications, 2022)
